Results as given in patent publication US8592483B2, “Method for treating schizophrenia” (Sucampo AG, priority 2011, dated 2013).

Tests used:
[1] = test system: PCP-disrupted PPI response in rats; test: PCP-disrupted PPI response in rats (schizophrenia model), intravenous administration; format: in vivo, Male Wistar rats; conditions: PCP 1.5 mg/kg s.c.; for % PPI (Mean ± SEM): 0.5 mg/kg intravenous, 15 min before PPI (immediately before PCP), pre-pulse 60 dB, startle 110 dB; for effect on PCP-disrupted PPI response: intravenous administration 15 min before PPI
Protocol: Male Wistar rats (n=135) (200-300 g) were used. Animals are housed at a standard temperature (22±1° C.) and in a light-controlled environment (lights on from 7 am to 8 pm) with ad libitum access to food and water. Animals are treated with Phencyclidine (PCP) at 1.5 mg/kg, s.c., and tested in Pre-Pulse Inhibition (PPI) 15 min later. Intravenous administration of Compound A ((−)-7-[(1R,2R)-2-(4,4-difluoro-3-oxooctyl)-5-oxocyclopentyl]heptanoic acid), Compound B ((+)-isopropyl (Z)-7-[(1R,2R,3R,5S)-3,5-dihydroxy-2-(3-oxodecyl)cyclopentyl]hept-5-enoate) and corresponding vehicle was done 15 min before PPI, which means each compound or vehicle was administered immediately before PCP injection.
(§1) PPI tests were conducted in standard startle chambers (SR-LAB Startle Response system, San Diego Instruments, USA). Before the PPI testing, the animals were habituated to handling. On the day of PPI testing, the animals were placed in the chamber and allowed to habituate for a period of 300 s. After habituation period, the rats received 12 startle trials, 12 no-stimulus trials, and 12 trials of the pre-pulse/startle trials (3×12 trials). The startle trials consists of single 110 dB white noise burst lasting 20 ms. The PPI trials consist of a pre-pulse (20 ms burst of white noise with intensities of 60 dB) followed 100 ms later by a startle stimulus (110 dB, 20 ms white noise). During the no-stimulus trial, no startle noise is presented. The resulting movement of the rat in the startle chamber is measured during 100 ms after startle stimulus onset. Basal startle amplitude is determined as the mean amplitude of the 12 startle trials. % PPI is calculated according to the formula 100−100%×(PP/P110), in which PP is the mean of the 12 pre-pulse inhibition trials (i.e., for each individual pre-pulse intensity), and P110 is the basal startle amplitude. The animals are treated with PCP s.c. and then tested in PPI 15 min later.

[2] = test system: PCP-disrupted PPI response in rats; test: PCP-disrupted PPI response in rats, oral administration; format: in vivo, Male Wistar rats; conditions: PCP 1.5 mg/kg s.c.; for % PPI (Mean ± SEM): 0.3 mg/kg oral, 45 min before PPI (30 min before PCP), pre-pulse 63 dB, startle 110 dB; for effect on PCP-disrupted PPI response: oral administration 45 min before PPI
Protocol: Male Wistar rats (n=135) (200-300 g) were used. Animals are housed at a standard temperature (22±1° C.) and in a light-controlled environment (lights on from 7 am to 8 pm) with ad libitum access to food and water. Animals are treated with Phencyclidine (PCP) at 1.5 mg/kg, s.c., and tested in Pre-Pulse Inhibition (PPI) 15 min later. Oral administration of Compound B ((+)-isopropyl (Z)-7-[(1R,2R,3R,5S)-3,5-dihydroxy-2-(3-oxodecyl)cyclopentyl]hept-5-enoate) and Compound C ((E)-7-[(1R,2R)-2-(4,4-difluoro-3-oxooctyl)-5-oxocyclopentyl]hept-2-enoic acid) and corresponding vehicle was done 45 min before PPI, which means each compound or vehicle was administered 30 min before PCP injection.
as §1, with “63” for “60”

Structure (SMILES) | % PPI (Mean ± SEM) [1] | effect on PCP-disrupted PPI response [1] | % PPI (Mean ± SEM) [2] | effect on PCP-disrupted PPI response [2]
CCCCC(F)(F)C(=O)CC[C@H]1CCC(=O)[C@@H]1CCCCCCC(=O)O [Compound A, (−)-7-[(1R,2R)-2-(4,4-difluoro-3-oxooctyl)-5-oxocyclopentyl]heptanoic acid] | 34.2 ± 3.9% | improved the PCP-disrupted PPI response |  | 
CCCCCCCC(=O)CC[C@@H]1[C@@H](C/C=C\CCCC(=O)OC(C)C)[C@@H](O)C[C@H]1O [Compound B, (+)-isopropyl (Z)-7-[(1R,2R,3R,5S)-3,5-dihydroxy-2-(3-oxodecyl)cyclopentyl]hept-5-enoate] | 40.5 ± 4.2% | improved the PCP-disrupted PPI response | 24.0 ± 5.3% | improved the PCP-disrupted PPI response
CCCCC(F)(F)C(=O)CC[C@H]1CCC(=O)[C@@H]1CCCC/C=C/C(=O)O [Compound C, (E)-7-[(1R,2R)-2-(4,4-difluoro-3-oxooctyl)-5-oxocyclopentyl]hept-2-enoic acid] |  |  | 24.7 ± 5.0% | improved the PCP-disrupted PPI response
